Test results: patent US20220033448A1, “METHODS FOR AGGREGATION OF PROTEINS” (priority 2011, published 2022)
No end group written: not given here.

Key:
human erythrocytes = assay type: cell-based
From the text: The detergent Tween was used as a positive control, causing 100% lysis of RBCs.

S. aureus ATCC 27853 = assay: Invasion assay: bacteria in infected HCT116 cell monolayers (CFU count); assay type: cell-based; conditions: 100 μg/ml, 90 minutes infection, 1 h treatment
Experimental: In this assay HCT116 cell monolayers (a human colon tumor cell line) were cultured at the bottom of a microwell plate. The next day fresh S. aureus ATCC 27853 bacteria were added (approximately 10^6 CFU/ml) and a negative uninfected control included. After 90 minutes of infection different dilution of peptides were added and the cultures were incubated for another hour. As a positive control Gentamycin was used, given that it has a good intracellular activity. Each well was washed with pre-warmed physiological water to get rid of any extra-cellular bacteria, followed by 1% Triton treatment to release all entrapped bacteria from mammalian cells. The content of the well was serially diluted and plated on TSA agar plates for CFU count.

Corynebacterium = conditions: peptides with purity of >95%
Experimental: (§1) Bacteria were grown in a shaking incubator at 37° C. and 160rpm in 50 ml BHI , using individual colonies retrieved from a fresh overnight TSA-sheep blood plate. The cultures were grown to a density of approximately 1×10^8cells/ml and then diluted to 5×10^5 cells/ml in CAMHB (Mc Farland 0.5). Each well contained 100p.I (50p.I of peptide containing MHB plus 50 μl inoculum). The final cell density was 1×10^5 to 5×10^5/ml. After addition of the cell suspension, plates were incubated at 37° C. for 18 to 24 hours. The optical density at 590 nm (OD590) of each well was measured after 5 seconds of shaking the plate using Perkin Elmer spectrophotometer (1420 Multilabel Counter Vicotr 3). […] Each well, where no growth was observed, was also plated on TSA-sheep blood agar plates, incubated at 37° C. overnight and visually inspected.
(§2) A microbroth dilution method was used with twofold serial dilutions in CAMHB (according to EMEA guidelines) was used for screening of peptide activity, with concentrations ranging from 0.3 μg/mIto 200 μg/ml.

mVEGFR2 = target: T1, mVEGFR2 (Mus musculus, UniProt P35918); assay: Immunohistochemical staining of mVEGFR2 in HEK293 cells (cellular localization); assay type: cell-based; conditions: 10 μM, overnight treatment
T1 construct: expressed in transfected cells; host or cells: HEK293
Experimental: To better understand the cellular mechanism of peptide inhibition, a preliminary experiment was performed in which cells were stained with an anti-VEGFR2 antibody to track the cellular localization.

EGFR family = assay: EGF-induced ERK1/2 phosphorylation in HeLa cells (cross reactivity of VEGFR2 peptides); assay type: cell-based, human; conditions: EGF 25 ng/ml
Experimental: As a next step, to test the specificity of the VEGFR2 peptides, we tested their cross reactivity towards the EGFR family. Therefore, HeLa cells were treated with peptide B8 and B12 and subsequently stimulated with EGF (25ng/ml).

Candida albicans SC5314 = assay: In vitro mature C. albicans biofilm formation on polystyrene (XTT reduction assay); assay type: cell-based; conditions: 250 μM, 50 μM and 10 μM; peptide during adhesion only or during whole biofilm development; p<0.001
Experimental: The initial screening and search for optimal Als3 candidate interferors was based on the C. albicans SC5314 adhesion assay on 96-well polystyrene plates upon administration of all the peptides at three different concentrations (250 μM, 50 μM and 10 μM). Based on the results obtained with this adhesion assay, we also tested the effect of peptides on mature biofilm development. The final election of the most optimal candidate interferor peptides was based on the results showing reduction in adhesion and mature biofilm formation caused by the lowest concentration of the peptide tested (10 μM or 2.5 μM).
In a next step, lower concentrations of peptide F9 (50 μM, 10 μM and 2.5 μM) were also tested. […] Both assays were performed in 96-well polystyrene plates and quantified by the XTT reduction assay (see material and methods section).
In vitro C. albicans biofilm was studied on three different types of biomaterials, namely flat bottom 96-well polystyrene plate (Greiner Bio-One, Germany), silicone (CS Hyde, USA) and polyurethane triple lumen intravenous catheters (2.4mm diameter) (Arrow International Reading, USA). […] After that, the biofilms were washed twice with 1×PBS and quantified.
The metabolic activity of Candida cells within in vitro biofilms was studied using the XTT reduction assay. […] The intensity of colorimetric change was measured by spectrophotometer (Spectra max Plus 384) at 490 nm. […]

β-Gal [1] = target: T2, β-Gal (Escherichia coli, UniProt P00722); conditions: equimolar concentrations of enzyme and interferor (10 μM)
Experimental: Enzyme functional readout was performed using the substrate fluorescein-di-I3-D-galactopyranoside (FDG), which is non-fluorescent but on enzymatic cleavage by β-Gal fluorescent fluorescein is liberated with intensity proportional to the catalytic activity.

β-Gal [2] = target: T2, β-Gal; conditions: 3-state model; 25° C.; 0-4 μM peptide
Experimental: In this in vitro experiment the affinity of different interferor peptides was measured for binding to β-gal by means of surface plasmon resonance (SPR). SPR experiments were performed at 25° C. using a Biacore T100 equipped with CM5 sensor chip (GE Healthcare.). Coupling reagents (N-ethyl-N′-(3-dimethylaminopropyl)carbodiimide (EDC), N-hydroxysuccinimide (NHS) and ethanolamine-HCI) were purchased from GE Healthcare. BSA and β-gal were purchased from Sigma-Aldrich and Roche Diagnostics, respectively. […] The proteins BSA and β-Gal were immobilized respectively, in the reference and sample channels on a CM5 sensor chip by standard amine coupling chemistry at a flow of 10 μl min^−1. The carboxymethyl dextran surface was activated by the injection of a 1:1 ratio of EDC and NHS for 7 minutes. The proteins were diluted in 10 mM sodium-acetate buffer, pH 4.5 to a final concentration of 0.2 mg m1^−1 and injected in short pulses over the activated surface until the immobilization levels reached 4000 RU or 8000 RU, for BSA and β-Gal, respectively. The remaining reactive groups were blocked with 1 M ethanolamine, pH 8. After completion of coupling, the surface was regenerated with short pulses of 50 mM NaOH and 8 M urea to remove non-covalently attached proteins. […] The peptides, dissolved in the running buffer (10 mM sodium phosphate, pH 6.8, 150 mM NaCI, 3 mM EDTA and 0.015% Tween 20) at a concentration of 1 μM, were injected for 60 s at a flow rate of 30 μl min^−1 and then allowed to dissociate for 600 s. The injection was repeated on the same surface as well as on independently immobilized surfaces. The surface was regenerated between each cycle by 30 s pulses of i) 50 mM NaOH, and ii) 8 M urea, and was allowed to stabilize for 400 s before the next cycle.
The peptide dissolved in the running buffer was injected for 60 s at a flow-rate of 301.11min′ over the reference (BSA) and sample (β-Gal) surfaces in a range of concentrations (0-4 μM, with one internal replicate) and were then allowed to dissociate for 600 s. The concentration series were repeated on the same surface (three times) as well as on independently immobilized surfaces. The surface was regenerated between each cycle by 30 s pulses of i) 50 mM NaOH, and ii) 8 M urea, and was allowed to stabilize for 400 s before the next cycle.
The data were globally fitted to a three-state model, using the Biacore T100 software, assuming an initial encounter between the peptide in solution and the protein on the chip followed by a two-step rearrangement before an identical binding site becomes available at the growing β-sheet.

T2 sequence (P00722 2-1024 with the stated changes limits assumed): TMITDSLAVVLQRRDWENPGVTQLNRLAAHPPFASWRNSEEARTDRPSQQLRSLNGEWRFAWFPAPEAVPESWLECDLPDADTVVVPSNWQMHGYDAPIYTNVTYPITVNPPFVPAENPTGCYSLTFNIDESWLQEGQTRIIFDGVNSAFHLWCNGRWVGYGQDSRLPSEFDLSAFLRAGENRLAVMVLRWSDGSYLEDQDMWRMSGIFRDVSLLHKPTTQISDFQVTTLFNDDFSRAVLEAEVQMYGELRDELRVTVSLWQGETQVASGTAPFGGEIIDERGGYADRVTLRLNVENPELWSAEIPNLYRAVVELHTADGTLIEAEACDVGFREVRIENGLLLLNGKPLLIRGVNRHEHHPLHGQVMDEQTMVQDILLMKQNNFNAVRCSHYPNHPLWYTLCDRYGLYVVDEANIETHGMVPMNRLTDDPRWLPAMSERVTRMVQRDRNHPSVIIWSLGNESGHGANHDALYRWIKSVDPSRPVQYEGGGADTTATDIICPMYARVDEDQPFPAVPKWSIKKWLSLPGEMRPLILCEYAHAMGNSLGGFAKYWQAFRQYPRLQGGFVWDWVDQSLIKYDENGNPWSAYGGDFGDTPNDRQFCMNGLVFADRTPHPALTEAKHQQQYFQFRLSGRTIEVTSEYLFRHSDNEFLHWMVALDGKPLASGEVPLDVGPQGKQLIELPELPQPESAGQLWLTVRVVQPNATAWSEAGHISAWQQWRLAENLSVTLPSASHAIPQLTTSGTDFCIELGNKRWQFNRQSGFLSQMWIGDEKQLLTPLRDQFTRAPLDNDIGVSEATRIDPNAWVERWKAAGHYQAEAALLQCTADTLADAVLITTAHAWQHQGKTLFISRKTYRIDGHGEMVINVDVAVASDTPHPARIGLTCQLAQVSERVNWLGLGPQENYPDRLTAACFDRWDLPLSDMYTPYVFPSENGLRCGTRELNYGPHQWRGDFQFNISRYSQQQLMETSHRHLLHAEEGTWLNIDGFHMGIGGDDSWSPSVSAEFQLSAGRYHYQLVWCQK
T1 sequence (P35918 20-1345): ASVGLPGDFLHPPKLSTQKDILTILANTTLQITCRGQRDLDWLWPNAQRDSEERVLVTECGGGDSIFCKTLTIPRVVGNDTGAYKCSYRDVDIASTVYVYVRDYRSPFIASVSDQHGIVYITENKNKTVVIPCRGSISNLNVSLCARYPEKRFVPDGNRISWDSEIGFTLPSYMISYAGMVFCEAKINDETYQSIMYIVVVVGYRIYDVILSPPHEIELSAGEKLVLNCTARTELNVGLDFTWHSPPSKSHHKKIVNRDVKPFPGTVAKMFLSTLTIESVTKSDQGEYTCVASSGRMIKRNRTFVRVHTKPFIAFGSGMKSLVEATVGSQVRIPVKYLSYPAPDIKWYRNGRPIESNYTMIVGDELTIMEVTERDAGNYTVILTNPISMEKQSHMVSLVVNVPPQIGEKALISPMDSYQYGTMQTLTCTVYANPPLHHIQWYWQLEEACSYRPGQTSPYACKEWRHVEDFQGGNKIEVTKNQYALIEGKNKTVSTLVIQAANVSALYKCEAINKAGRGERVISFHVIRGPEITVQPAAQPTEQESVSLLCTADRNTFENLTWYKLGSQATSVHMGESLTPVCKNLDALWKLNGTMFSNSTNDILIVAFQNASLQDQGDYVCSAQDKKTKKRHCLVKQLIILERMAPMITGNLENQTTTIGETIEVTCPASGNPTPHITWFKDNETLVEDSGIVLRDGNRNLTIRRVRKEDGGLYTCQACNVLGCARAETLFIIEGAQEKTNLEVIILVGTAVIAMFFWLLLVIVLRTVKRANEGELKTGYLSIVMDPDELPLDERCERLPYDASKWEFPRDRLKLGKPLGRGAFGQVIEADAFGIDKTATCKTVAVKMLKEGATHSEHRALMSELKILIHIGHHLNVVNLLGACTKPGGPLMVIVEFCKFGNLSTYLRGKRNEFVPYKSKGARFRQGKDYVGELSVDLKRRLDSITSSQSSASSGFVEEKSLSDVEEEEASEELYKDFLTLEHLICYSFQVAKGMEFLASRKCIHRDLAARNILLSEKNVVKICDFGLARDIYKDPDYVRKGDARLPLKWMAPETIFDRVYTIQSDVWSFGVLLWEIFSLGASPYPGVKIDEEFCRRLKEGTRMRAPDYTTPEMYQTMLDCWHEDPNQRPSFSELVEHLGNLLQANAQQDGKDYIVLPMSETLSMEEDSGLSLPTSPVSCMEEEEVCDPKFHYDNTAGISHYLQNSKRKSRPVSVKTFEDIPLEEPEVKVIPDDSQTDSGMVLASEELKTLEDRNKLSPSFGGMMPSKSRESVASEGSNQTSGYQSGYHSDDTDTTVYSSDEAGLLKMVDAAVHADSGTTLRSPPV
Experimental for S. epidermidis: as §1, §2

RRLFNFLKRGSRLFNFLKR [Hit24] was tested, and the “MIC values against S.epidermidis ATCC 12228” value (S. epidermidis) was 1.5 µg/mL, the MIC (E. cloacae) was 25 µg/mL and the hemolytic activity (human erythrocytes) was “no significant hemolytic activity at clinically relevant concentrations”. For the same substance, the “MIC values against S.aureus ATCC 29213” value (S. aureus) was 12.5 µg/mL.

With RFFIGLSRRGSRLFNFLKR [Hit57A] the “numbers of bacteria in infected cell monolayers” value (S. aureus ATCC 27853) was “effectively reduced the numbers of bacteria in infected cell monolayers”, the “MIC values against Corynebacterium” value (Corynebacterium) was “Not active” and the hemolytic activity (human erythrocytes) was “no significant hemolytic activity at clinically relevant concentrations”. The MIC (S. aureus) was 50 µg/mL, the “MIC in presence of 50% FBS” value (S. aureus) was 100 µg/mL and the “MIC values against MRSA 326” value (S. aureus) was 6 µg/mL.

For DLAVALWFDPPDLAVALWFD [B8], the “cellular localization of VEGFR2” value (mVEGFR2) was “no longer present on the cell surface” and the “ERK1/2 phosphorylation after EGF stimulation” value (EGFR family) was “do not inhibit ERK1/2 phosphorylation”.

For RNGIVIVATTR [E1], the “biofilm formation (metabolic activity compared to control)” value (Candida albicans SC5314) was “significant reduction in biofilm formation”.

(His)6~RVIIWSLGNR [Tango 2 peptide] was tested, and the “enzymatic activity of β-galactosidase” value (β-Gal [1]) was “complete inhibition of enzymatic activity”, the ka1 (β-Gal [2]) was 2.744E+4 and the “ka1 (second value printed)” value (β-Gal [2]) was 0.02359. The ka3 (β-Gal [2]) was 0.005491, the kd1 (β-Gal [2]) was 0.4123 and the kd2 (β-Gal [2]) was 0.02509. The kd3 (β-Gal [2]) was 0.002654.
